Where two headings read alike, the source gives them in different places.
How the values were obtained:
[1] = tested on: HIV-1 pNL-4.3 clone (pNL4-3 wild type); assay: Antiviral test in HeLa-P4 cells (single cycle, CPRG beta-galactosidase test); assay type: cell-based
Experimental: HeLa-P4 cells are HeLa CD4 LTR-LacZ cells in which the expression of LacZ is induced by the trans-activating Tat protein of HIV, making it possible to precisely quantify the HIV-1 infectivity from a single replication cycle. HeLa-CD4 cells growing exponentially at a density of 1×10^4/ml are placed in 96-well plates and infected on the following day with 3 ng of HIV p24 antigen in the presence of various concentrations of compounds.
(§1) The titres for a single cycle of the virus were determined in HeLa-P4 cells. The cells were infected, in duplicate, in 96-well plates, with the HIV-1 pNL-4.3 clone (equivalent to 3 ng of p24 antigen). The titres for a single cycle of the viruses were determined 48 hours after infection by quantifying the beta-galactosidase activity in P4 lysates by means of a colorimetric test (CPRG test) based on cleavage of chlorophenol red-beta-D-galactopyranoside (CPRG) by beta-galactosidase. The 50% inhibitory concentration (IC50) was determined as the concentration of compound A providing 50% inhibition of beta-galactosidase levels compared with the untreated infected cells.
The antiviral activity of compound A according to the invention was evaluated using an amount of HIV corresponding to 3 ng of p24 antigen.
(§2) Compound A according to the invention was tested on the pNL4-3 virus optionally modified by site-directed mutagenesis, comprising or not comprising (wt) the mutations located in the reverse transcriptase gene and associated with resistance to the main NRTIs used in clinical practice. Tables 1A to 1C below group together the resistance indices of compound A according to the invention on the viruses with and without mutation.
(§3) The resistance index of a mutant represents the ratio of the concentration of compound capable of inhibiting by half (IC50) the growth of the mutant virus tested, to the concentration of compound capable of inhibiting by half (IC50) the growth of the wild-type virus.

pNL4-3 E138K = assay type: cell-based, HIV-1
Experimental: as §1, §2, §3
(§4) A resistance index greater than approximately 1.5 or 2 signifies that the viral strain is resistant to the treatment.

pNL4-3 K103N = assay type: cell-based, HIV-1
Experimental: as §1, §2, §3, §4

pNL4-3 K65R-M184V = assay type: cell-based, HIV-1
Experimental: as §1, §2, §3, §4

pNL4-3 K65R = assay type: cell-based, HIV-1
Experimental: as §1, §2, §3, §4

[2] = tested on: pNL4-3 M184V-M41L-L210W-T215Y; assay type: cell-based, HIV-1
Experimental: as §1, §2, §3, §4

pNL4-3 M184V = assay type: cell-based, HIV-1
Experimental: as §1, §2, §3, §4

pNL4-3 M41L-L210W-T215Y = assay type: cell-based, HIV-1
Experimental: as §1, §2, §3, §4

pNL4-3 T215Y = assay type: cell-based, HIV-1
Experimental: as §1, §2, §3, §4

pNL4-3 N155H = assay type: cell-based, HIV-1
pNL4-3 G140S-Q184H = assay: Resistance index on pNL4-3 virus modified by site-directed mutagenesis; assay type: cell-based, HIV-1; conditions: Table 1C; integrase-inhibitor-resistance mutant G140S-Q184H; ratio IC50 mutant / IC50 wild type
Experimental: as §1, §2
The resistance index of a mutant represents the ratio of the concentration of compound capable of inhibiting by half (IC50) the growth of the mutant virus tested, to the concentration of compound capable of inhibiting by half (IC50) the growth of the wild-type virus. […]

pNL4-3 Q184H = assay: as above; assay type: cell-based, HIV-1; conditions: Table 1C; integrase-inhibitor-resistance mutant Q184H; ratio IC50 mutant / IC50 wild type
LAI viruses in MT2 cells = assay: Antiviral test in MT2 cells (viral load on day 3); assay type: cell-based, HIV-1; conditions: Human immunodeficiency virus 1; MT2 cells infected with LAI viruses
Experimental: The MT2 cells were concentrated at 3×10^6/ml and infected with 10^7 viruses (LAI). The cells were distributed into 96-well plates (1×10^5/well) and incubated in the presence of various concentrations of compound A (in quadruplicate). The viral loads were determined on day 3 (Cobas AmpliPrep/Cobas TaqMan (CTM) HIV-1 v2 test).
Compound A was tested on MT2 cells infected with LAI viruses.

in vitro = assay type: cell-based; conditions: read-out: CC50 (50% cytotoxic concentration)
Experimental: A cell viability test measuring the absorbance at 560 and 690 nm using the yellow tetrazolium […] [3-(4,5-dimethyl-2-thiazolyl)-2,5-diphenyltetrazolium bromide] reagent was carried out with the tetrabenzoyladenosine in the HeLa-CD4, Vero, FH, MT2 and SupT1 cell lines.
Using various cell types (HeLa-CD4, Vero, FH, MT2 and SupT1), the CC50 (50% cytotoxic concentration) of compound A was measured at more than 100 μM in all cases.

[3] = tested on: Lai virus in MT2 cells, intracellular viral DNA; assay: Inhibition of double-stranded proviral DNA production (Taqman real-time PCR); assay type: cell-based, HIV-1; conditions: 10 or 25 μM of compound, FIG. 2
Experimental: (§5) The MT2 cells were concentrated at 15×10^6/ml and incubated for 2 h with 10 or 25 μM of compound A. The Lai virus is then added at a multiplicity of infection of 0.01 for 1 h. The cells are washed and then incubated in culture medium containing 10 or 25 μM of the compound to be tested. A sample of 1×10^6 cells is taken at various times and the viral DNA is quantified by means of a Taqman real-time PCR method. The viral RNA loads are quantified in the culture medium (Cobas AmpliPrep/Cobas TaqMan (CTM) HIV-1 v2 test).

[4] = tested on: Lai virus in MT2 cells, extracellular viral RNA; assay: Inhibition of viral RNA production in culture medium (Cobas TaqMan HIV-1 v2 test); assay type: cell-based
Experimental: as §5

[5] = amount of HIV corresponding to 3 ng of p24 antigen

For `O=C(O[C@@H]1[C@H](OC(=O)c2ccccc2)[C@H](n2cnc3c(N(C(=O)c4ccccc4)C(=O)c4ccccc4)ncnc32)O[C@@H]1CO)c1ccccc1` (stereo in doubt) [compound A, N^6,N^6,O^2′,O^3′-tetrabenzoyladenosine], the “Viral production (10 μM of compound)” value [1, 5] was 0%, the IC50 ([1]; Human immunodeficiency virus 1, HeLaP4, amount of HIV corresponding to 3 ng of p24 antigen, FIG. 1) was 1 to 2 µM and the Resistance index ([1]; {}) was 1. The “Resistance index (fold change)” value ([1]; {}) was 1 fold change, the Resistance index (pNL4-3 E138K) was 0.89 and the Resistance index (pNL4-3 K103N) was 1. The “Resistance index (fold change)” value (pNL4-3 K65R-M184V) was 1.07 fold change, the “Resistance index (fold change)” value (pNL4-3 K65R) was 0.92 fold change and the “Resistance index (fold change)” value [2] was 0.58 fold change. For the same compound, the “Resistance index (fold change)” value (pNL4-3 M184V) was 0.99 fold change, the “Resistance index (fold change)” value (pNL4-3 M41L-L210W-T215Y) was 0.38 fold change and the “Resistance index (fold change)” value (pNL4-3 T215Y) was 0.41 fold change. For the same compound, the Resistance index (pNL4-3 N155H) was 1.04, the Resistance index (pNL4-3 G140S-Q184H) was 0.99 and the Resistance index (pNL4-3 Q184H) was 0.88. It also gave an IC50 (LAI viruses in MT2 cells) of 1.6 µM, a CC50 (in vitro; African green monkey, Vero cells) of over 100 µM and a CC50 (in vitro; FH cells) of over 100 µM. The CC50 (in vitro; human, HeLa-CD4 cells) was over 100 µM, the CC50 (in vitro; human, MT2 cells) was over 100 µM and the CC50 (in vitro; human, SupT1 cells) was over 100 µM. For the same compound, the “appearance of the intracellular viral DNA” value [3] was “inhibited”, the “production of the extracellular viral RNA” value ([4]; 10 or 25 μM of compound, FIG. 3) was “inhibited” and the “inhibition of the viral load, comparison with AZT (zidovudine)” value ([4]; FIGS. 2 and 3) was “clear superiority”.

In the case of `O=C(Nc1ncnc2c1ncn2[C@@H]1O[C@H](CO)[C@H](OC(=O)c2ccccc2)[C@@H]1OC(=O)c1ccccc1)c1ccccc1` [reference compound], the “Viral production (10 μM of compound)” value [1, 5] is reported as 109%.
